Experimental data from US8722376B2, “Firefly luciferase” (Olympus Corporation, priority 2011, dated 2014).
Numbering of substitutions follows the chain as printed. In names and notes the source's numbering stands. Where two headings read alike, the source gives them in different places.

Tests used:
[1] = test system: SP1 luciferase, Luciola sp1 (Malaysian firefly, genus Luciola), wild type, SEQ ID NO: 1; test: Km of SP1 luciferase (luminescence kinetic analysis); type: biochemical; conditions: for Km values with respect to ATP and D-luciferin, compared with known luciferases: FIG. 2, SP1 luciferase versus known luciferases; for Km: 0.1 M Tris-HCl (pH 8.0), MgSO4, Michaelis Menten curve fitting
Protocol: The measurements were carried out ten times for each sample, and the average of absorbency was used for the calculation.
Various 12 types of ATP solutions were prepared by adding ATP to 0.1 M Tris-HCl (pH 8.0). These solutions contain ATP at final concentration of 5, 10, 20, 40, 80, 160, 320, 480, 640, 800, 1280, 1600, or 1920 μM. These ATP solutions were each injected into 96-hole in a microplate at a volume of 50 μl. […] Measurement was repeated 3 times for each ATP concentration.
The peak intensities of the obtained photon count value were plotted with respect to ATP concentration S, with an initial rate V. The plots were subjected to curve fitting of Michaelis Menten type, thereby giving Km value. The curve fitting was performed by a nonlinear least-squares method, and the search of the parameter was performed by a Newton method.

[2] = test system: ELuc (luciferase derived from known click beetles); test: Km of ELuc luciferase (luminescence kinetic analysis); type: biochemical, click beetle; conditions: 0.1 M Tris-HCl (pH 8.0), MgSO4, measured in a similar manner
Protocol: (§1) A solution of 0.1 M Tris-HCl (pH 8.0) containing each of the purified luciferase, 4 mM of ATP, and 8 mM of MgSO4 was connected to the standard pump of the luminometer, and the measurements was carried out at the same time as addition of 50 μl of the solution to the well. A Luminescensor (ATTO) was used for the measurements. Measurements were repeated 3 times for each luciferin concentration.
(§2) The peak intensity of the obtained photo count value was plotted with respect to luciferin concentration S, defining the initial rate as V. The plots were subjected to curve fitting of Michaelis Menten type, thereby giving Km values. The curve fitting was performed by a nonlinear least-squares method, and the search of the parameter was performed by a Newton method.
(§3) 4-3. Measurement of Km Value with Respect to ATP
(§4) Under various ATP concentrations, the luminescent intensity of the obtained luciferase was measured. Based on the results, Km values with respect to ATP was determined.
(§5) Various […] types of ATP solutions were prepared by adding ATP to 0.1 M Tris-HCl (pH 8.0). These solutions contain ATP at final concentration of 5, 10, 20, 40, 80, 160, 320, 480, 640, 800, 1280, 1600, or 1920 μM. These ATP solutions were each injected into 96-hole in a microplate at a volume of 50 μl. […]
(§6) Table 1 also indicates Km values for known firefly luciferases, measured in a similar manner. […]

[3] = test system: CBG (luciferase derived from known click beetles); test: Km of CBG luciferase (luminescence kinetic analysis); type: biochemical, click beetle; conditions: 0.1 M Tris-HCl (pH 8.0), MgSO4, measured in a similar manner
Protocol: as §1, §2, §3, §4, §5, §6

[4] = test system: CBR (luciferase derived from known click beetles); test: Km of CBR luciferase (luminescence kinetic analysis); type: biochemical, click beetle; conditions: 0.1 M Tris-HCl (pH 8.0), MgSO4, measured in a similar manner
Protocol: as §1, §2, §3, §4, §5, §6

[5] = Measurement of luminescent intensity of purified luciferase compared with Rhodamine 6G and P. pyralis luciferase; type: biochemical; conditions: purified enzymes, integration of light 300 nm to 650 nm for 10 seconds
Protocol: Rhodamine 6G was dissolved into 0.1 M citric acid/0.2 M Na2HPO4 (pH 4.0) solution. The Rhodamine 6G solution was centrifuged for 1 minute at 15,000 rpm, and the supernatant was collected. The collected supernatant is diluted with 0.1 M citric acid/0.2 M Na2HPO4 solution 1000 fold, and the absorbance thereof was measured. Measurement was carried out by NanoVue (GE Healthcare). The measurement at 530 nm was repeated 5 times, and the average absorbance 0.048 was obtained. The concentration of the original Rhodamine 6G solution was calculated by using ε value of Rhodamine (1.16×10^5 mol^−1cm^−1), and the value 414 μM was obtained. The solution was diluted with 0.1 M citric acid/0.2 M Na2HPO4 solution (pH 4.0) to prepare 30 μM of a diluted solution.
Solution 1 having the following composition was prepared with use of the diluted solution.
Solution 2 was prepared by dissolving bis (2,4,6-trichlorophenyl)oxlate (TCPO) so that the final concentration thereof is 3 mM.
100 μl of solution 1 was injected for each well of 96-hole microplate. Measurement was started at the same time as addition of 50 μl of solution 2 with use of a pump, and integration value of photon counts for 10 seconds from addition of solution 2 was obtained. […]
A concentration of the obtained sample was measured by a colorimetric method, and the concentrations of P. pyralsis luciferase and SP1 luciferase were confirmed. […]

HeLa cells = test: Luminescence activity of SP1 mutants expressed in HeLa cells, corrected by hRluc internal standard; type: cell-based; conditions: 90 minutes after D-luciferin addition, corrected by hRluc luminescence at 10 minutes
Excerpt: The fragment of the nucleic acid having the base sequence of SEQ ID NO: 35 was inserted into between SgfI site and PmeI site of a pF9A CMV hRluc-neo FlexiR vector (Promega). The fragment of the nucleic acid having the base sequence of SEQ ID NO: 36 was inserted into between SgfI site and PmeI site of another pF9A CMV hRluc-neo FlexiR vector. Two types of the obtained expression vectors were each introduced into HeLa cells, and mutants were expressed.
The luminescence intensity of two types of cells expressing mutants was detected by using a cell expressing the original SP1 luciferase without mutations as a comparison. Here, the luminescence intensity of each Hela cell was corrected using the luminescence based on hRluc gene of pF9A CMV hRluc-neo FlexiR vector (Promega) as an internal standard.

HeLa cell = test: Luminescent intensity of SP1 luciferase expressed in a mammal cell; type: cell-based; conditions: expression in HeLa cell, 1 mM D-luciferin, integration for 10 seconds
Protocol: SP1 luciferase was expressed in a HeLa cell, and the luminescent intensity in a cell was measured.
For introduction of SP1 luciferase gene, four types of expression vectors were prepared. Nucleic acids each containing a gene prepared by deleting recognition sequences of BamHI and EcoRI from the original SP1 luciferase gene obtained from Luciola sp1 (SEQ ID NO: 3), a gene further optimized for expression in a mammal cell (SEQ ID NO: 4), and two types of genes to which Kozak sequence was further added (SEQ ID NOS: 29 and 30) were each inserted into the multi-cloning site between BamHI and EcoRI of pcDNA3.1(+) vector (Invitrogen). Further, for comparison, a nucleic acid containing a known P. pyralis luciferase gene optimized for expression in a mammal cell was inserted into pcDNA3.1(+) vector similarly.
Five types of plasmids obtained in such a manner described above were each subjected to gene transfection to a HeLa cell by a lipofection method, and D-MEM culture medium was exchanged after 24 hours. […] The luminescent intensities shown in FIG. 4 are integration values for 10 seconds.

[6] = read-out: Km for D-luciferin, ATP
[7] = D-luciferin, read-out: Km for ATP

Q: Which results are given for `O=C(O)[C@H]1CSC(c2nc3ccc(O)cc3s2)=N1` [D-luciferin]?
A: Km values with respect to ATP and D-luciferin, compared with known luciferases [1]: higher Km values; Km [1, 6]: 44.6 µM; Km [2, 6]: 12.7 µM; Km [3, 6]: 1.44 µM; Km [4, 6]: 33.3 µM

Q: What does the source list for `Nc1ncnc2c1ncn2[C@@H]1O[C@H](COP(=O)(O)OP(=O)(O)OP(=O)(O)O)[C@@H](O)[C@H]1O` [ATP]?
A: Km [1, 7]: 195 µM; Km values with respect to ATP and D-luciferin, compared with known luciferases [1]: higher Km values; Km [2, 7]: 182 µM; Km [3, 7]: 58.4 µM; Km [4, 7]: 47.1 µM

B1: SP1 luciferase: luciferase of SEQ ID NO: 1 derived from Malaysian firefly Luciola sp1 (protein, listed as Luciola sp.)
chain: MNNMDDGEHIVVGPQPFYPVEEGSAGTQLLKYLKQYSKLGAIAFSNAHTKVDISYAEYLDTSVRLAQALINYGIPIDGRIALCSENCEEFYFPVLAGLYIGAGVAPTNEIYTLRELVHSLGISKPTIVFSSKKGLEKVITVQKTVTCIKTIVILDSKVDYQGYDCLETFIKKYLPAGFSVENFIPREVNRKEQVALVMNSSGSTGLPKGVQITHEGAVTRFSHARDPIYGNQVSPGTAILTIVPFHHGFGMFTNLGYLTCGYRIVMLTKFDEELFLKTLADYKCTSVILVPTLFAILSKSVLLEKYDLSNLVEIASGGAPLAKEVGEAVARRFNLPGIRQGYGLTETTSAIIITPEGDDKPGASGKIVPLFRAKVVDLDTQKTLGPNRRGEICVKGPMLMKGYVDDPVATSQIIDKDGWLHTGDIGYFDEDKHFFIVDRLKSLIKYKGYQVPPAELESVLLQHPDIFDAGVAGLPDPLAGELPGAVVVLEKGRHMTEQQVMDYVAGQVSNAKRLRGGVRFVDEVPKGLTGKIDSKAIREILKSPKAKM
Q: Which “luminescent intensity in comparison to that of P. pyralis luciferase” value [5] does the source give for B1 here?
A: The value was 4.9 times.

B2: SP1 mutant 1: SP1 luciferase with mutations D438G, I532R and E356R; amino acid sequence SEQ ID NO: 37 (protein)
chain: B1 chain with E356R, D438G, I532R
modifications: Luciola sp. mutant 1
Q: For B2, which “luminescence intensity in comparison to the original SP1” value (HeLa cells) is on record?
A: Its value is “increased”.

B3: SP1 luciferase codon optimized: SP1 luciferase expressed from gene optimized for expression in a mammal cell (SEQ ID NO: 4) (protein, listed as Luciola sp.)
chain: B1 chain
Q: For B3, which “increase of luminescent intensity in comparison to SP1 luciferase without codon optimization” value (HeLa cell) is on record?
A: The value was 16.2 times.

Q: And the “luminescent intensity in comparison to that of P. pyralis luciferase after codon optimization” value (HeLa cell)?
A: The value was 1.7 times.

B4: SP1 mutant 2: SP1 luciferase with mutations E356R and V368A; amino acid sequence SEQ ID NO: 38 (protein)
chain: B1 chain with E356R, V368A
modifications: Luciola sp. mutant 2
Q: For B4, which “luminescence intensity in comparison to the original SP1” value (HeLa cells) is on record?
A: The value was “increased”.
